One experiment addresses T1, D^b of MHC class I (Mus musculus, UniProt P01899).
T1 construct: the cell line (RMA-S) that expresses K^b and D^b molecules; endogenous in cells; host or cells: RMA-S cells
T1 sequence (P01899 25-362): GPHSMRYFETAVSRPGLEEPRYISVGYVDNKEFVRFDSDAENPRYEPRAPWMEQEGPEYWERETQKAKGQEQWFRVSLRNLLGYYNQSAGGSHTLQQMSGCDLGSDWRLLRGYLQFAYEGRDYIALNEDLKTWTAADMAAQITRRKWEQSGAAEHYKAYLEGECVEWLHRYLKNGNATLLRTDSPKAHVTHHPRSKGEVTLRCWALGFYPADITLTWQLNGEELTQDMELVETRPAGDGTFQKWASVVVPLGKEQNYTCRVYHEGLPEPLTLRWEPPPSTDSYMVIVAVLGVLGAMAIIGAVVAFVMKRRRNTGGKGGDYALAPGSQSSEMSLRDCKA
T1 sequence (P01887 21-119 partner): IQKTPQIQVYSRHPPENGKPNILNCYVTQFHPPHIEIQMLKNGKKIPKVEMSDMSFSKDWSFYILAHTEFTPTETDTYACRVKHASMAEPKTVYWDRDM
Kind of experiment: Binding of peptides to D^b on RMA-S cells (fluorescent antibody staining, binding dissociation constant). The method, then: Thus, RMA-S was cultured at 26° C. to effect high expression of MHC class I, and the cultured cells were incubated with the solutions of the test peptides at 37° C. for 1 hour. […] Then using fluorescently labeled monoclonal antibody that recognizes MHC class I (K^b, D^b), RMA-S cells were stained.

The next experiment addresses T2, K^b of MHC class I (Mus musculus, UniProt P01901).
T2 construct: the cell line (RMA-S) that expresses K^b and D^b molecules; endogenous in cells; host or cells: RMA-S cells
T2 sequence (P01901 22-369): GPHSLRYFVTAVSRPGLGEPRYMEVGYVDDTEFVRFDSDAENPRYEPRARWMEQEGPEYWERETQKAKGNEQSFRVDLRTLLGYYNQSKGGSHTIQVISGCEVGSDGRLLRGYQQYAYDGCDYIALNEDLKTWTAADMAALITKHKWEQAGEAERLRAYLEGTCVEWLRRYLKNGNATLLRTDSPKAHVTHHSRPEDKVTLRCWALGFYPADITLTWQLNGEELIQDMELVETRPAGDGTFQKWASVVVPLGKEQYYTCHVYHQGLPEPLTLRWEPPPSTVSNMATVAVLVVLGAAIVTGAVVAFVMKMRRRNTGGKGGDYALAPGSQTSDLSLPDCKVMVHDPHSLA
T2 sequence (P01887 21-119 partner): T1 sequence (P01887 21-119 partner)
Briefly: Binding of peptides to K^b on RMA-S cells (fluorescent antibody staining, binding dissociation constant). Conditions: peptide 37° C. 1 hour. The method, then:
(§1) Thus, RMA-S was cultured at 26° C. to effect high expression of MHC class I, and the cultured cells were incubated with the solutions of the test peptides at 37° C. for 1 hour. […] Then using fluorescently labeled monoclonal antibody that recognizes MHC class I (K^b, D^b), RMA-S cells were stained. Finally, the binding dissociation constant was calculated from the average amount of fluorescence per cell (Immunol. Lett., 47: 1, 1995).

For a further experiment, the system named is induced CTL. Kind of experiment: FACS analysis of surface markers of induced CTL, Example 3. Format: cell-based. The following applies: human CTL, FIGS. 5 to 10. As to the method:
One week later, T2 cells that were irradiated after incubating for 1 hour with the peptide (20 μg/ml) were added to the above culture system for restimulation. From the following day, human IL-2 (final concentration 100 JRU/ml) was added to the culture.
Subsequently, after repeating, for five times, stimulation with the T2 cells that were irradiated after being pulsed with the peptide, a killing assay was performed using, as the target, the T2 cells pulsed with the peptide or the T2 cells not pulsed with the peptide. The surface markers of the induced CTL were subjected to FACS analysis.
A general note: In flow cytometry, cells or beads pass a laser one at a time.

The target of a further experiment is T3, HLA-A* 0201 (Homo sapiens, UniProt P04439, D140Y/D185E/D98H/E176V/E277Q/G131W/G231S/I119V/I121R/I166T/I218V/L300P/L318F/N151K/N90K/P208A/P217A/Q86G/Q94H/R138H/R169H/T345S).
T3 construct: T2 cells having the empty HLA-A* 0201 molecules; endogenous in cells; host or cells: T2 cells
Kind of experiment: Binding of peptides to HLA-A* 0201 on T2 cells (FACS, binding dissociation constant). The following applies: 37° C. 1 hour.

The target in experiment [1] is T4, D^b of mouse MHC class I, on RMA-S cells (mouse, UniProt P01887 21-119; P01899 25-362).
T4 construct: whole, on cells; Empty MHC class I on RMA-S cells cultured at 26 C; also called H-2D^b
T4 sequence (MHC heavy, looked up): T1 sequence (P01899 25-362)
T4 sequence (b2m, looked up): T1 sequence (P01887 21-119 partner)
Briefly: MHC stabilisation on RMA-S cells, staining with fluorescent anti-MHC class I antibody, flow cytometry. The method, then: as §1

The next experiment deals with T5, HLA-A* 0201, on T2 cells (human).
T5 construct: whole, on cells; Empty HLA-A*0201 molecules on T2 cells; also called HLA-A2.1; A* 0201 of human HLA
Kind of experiment: peptide binding to empty HLA-A*0201 on T2 cells, staining with fluorescent anti-HLA-A2.1 antibody, FACS. The method, then: The above peptides and T2 cells having the empty HLA-A* 0201 molecules (J. Immunol., 150: 1763, 1993; Blood, 88: 2450, 1996) were incubated at 37° C. for 1 hour, and then the T2 cells were stained with fluorescently labeled monoclonal antibody that recognizes HLA-A2.1 to calculate the binding dissociation constant based on the average amount of fluorescence per cell in the FACS analysis.

Experiment [2] deals with T6, K^b of mouse MHC class I, on RMA-S cells (mouse, UniProt P01887 21-119; P01901 22-369).
T6 construct: whole, on cells; Empty MHC class I on RMA-S cells cultured at 26 C; also called H-2K^b
T6 sequence (MHC heavy, looked up): T2 sequence (P01901 22-369)
T6 sequence (b2m, looked up): T1 sequence (P01887 21-119 partner)
Kind of experiment: MHC stabilisation on RMA-S cells, staining with fluorescent anti-MHC class I antibody, flow cytometry. The method, then:
as §1

Setting [3] is: RMA-S cells, peptide 37° C. 1 hour, read-out: binding dissociation constant (Kd value) with D^b (converted).

Where two headings read alike, the source gives them in different places. No end group written: not given here.

As for `CSCC[C@H](NC(=O)[C@@H](N)CCCNC(=N)N)C(=O)N[C@@H](Cc1ccccc1)C(=O)N1CCC[C@H]1C(=O)N[C@@H](CC(N)=O)C(=O)N[C@@H](C)C(=O)N1CCC[C@H]1C(=O)N[C@@H](Cc1ccc(O)cc1)C(=O)N[C@@H](CC(C)C)C(=O)O` [D^b 126], binding at D^b of MHC class I was put at a Kd of 0.521 µM.
As to CMTWNQMNL [D^b 235], the Kd – broadly, a measure of binding affinity in units of concentration – on D^b of MHC class I (setting [3]) was 0.715 µM.
CNKRYFKL [K^b 330] showed a Kd at K^b of MHC class I of 1.73 µM.
The same measure, in the same setting: with GASAYGSL [K^b 45] the figure was 26.4 µM.
Regarding SLGEQQYSV [WH 187], the “surface markers of induced CTL (CD4, CD8)” value with induced CTL was “The CD4-positive cells and the CD8-positive cells were almost equal in the number”. The Kd at HLA-A* 0201 is 7.61 µM.
For YSSDNLYQM [D^b 221], the Kd at D^b of MHC class I (setting [3]) was 1.76 µM.

B1: D^b 221 peptide (peptide)
peptide: YSSDNLYQM
B1: the “log of binding dissociation constant (Kd)” value (“log” below) in experiment [1] was -5.75 log.

B2: WH 187 peptide (peptide)
peptide: SLGEQQYSV
B2: the Kd with HLA-A* 0201, on T2 cells is 7.61 µM.

B3: K^b 45 peptide (peptide)
peptide: GASAYGSL
Regarding B3, the “log” value in experiment [2] was -4.58 log.

B4: D^b 235 peptide (peptide)
peptide: CMTWNQMNL
As to B4, the “log” value in experiment [1] was -6.15 log.

B5: D^b 126 peptide (peptide)
peptide: RMFPNAPYL
notes: It was tested on both H-2D^b and HLA-A*0201
Consider B5, for which, in experiment [1], the “log” value was -6.28 log.

B6: K^b 330 peptide (peptide)
peptide: CNKRYFKL
Consider B6, for which the “log” value in experiment [2] is -5.76 log.

These data come from patent US20050266014A1, “Tumor antigen based on products of the tumor suppressor gene WT1” (HARUO SUGIYAMA, priority 1998, published 2005).
